Reference: ChEMBL document CHEMBL3763070, “Development of CINPA1 analogs as novel and potent inverse agonists of constitutive androstane receptor” (Eur J Med Chem, 2016)

Target: T1, Nuclear receptor subfamily 1 group I member 3 (Homo sapiens, UniProt Q14994)
T1 sequence (Q14994 whole entry): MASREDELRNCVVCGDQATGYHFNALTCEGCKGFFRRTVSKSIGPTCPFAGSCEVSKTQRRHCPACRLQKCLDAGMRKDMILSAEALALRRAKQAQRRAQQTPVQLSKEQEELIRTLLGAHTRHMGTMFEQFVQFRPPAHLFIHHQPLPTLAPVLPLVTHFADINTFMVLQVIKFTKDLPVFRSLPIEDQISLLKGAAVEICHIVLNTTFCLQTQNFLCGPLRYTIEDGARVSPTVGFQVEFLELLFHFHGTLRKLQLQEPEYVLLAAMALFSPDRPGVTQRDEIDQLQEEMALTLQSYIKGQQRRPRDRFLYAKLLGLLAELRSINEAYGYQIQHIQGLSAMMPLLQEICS
Assay: Inverse agonist activity at GST tagged-human CAR-LBD assessed as reduction in fluorescein-PGC1 alpha coactivator recruitment after 1 hr by TR-FRET assay

Row | IC50 | Compound
1 | > 70000 nM | CCOC(=O)Nc1ccc2c(c1)N(C(=O)CN)c1ccccc1CC2
2 | 19.5 nM | CC(C)OC(=O)Nc1ccc2c(c1)N(C(=O)COC1CCCC1)c1ccccc1CC2
3 | 116 nM | CC(C)OCC(=O)N1c2ccccc2CCc2ccc(NC(=O)OC(C)(C)C)cc21
4 | 11.7 nM | O=C(Nc1ccc2c(c1)N(C(=O)Cn1cccc1)c1ccccc1CC2)OC1CCCCC1
5 | 116 nM | CCCN(CCC)CC(=O)N1c2ccccc2CCc2ccc(NC(=O)OC(C)C)cc21
6 | 1030 nM | CCN(CC)CC(=O)N1c2ccccc2CCc2ccc(NC(=O)OC(C)(C)C)cc21
7 | 31.9 nM | CC(C)(C)OC(=O)Nc1ccc2c(c1)N(C(=O)Cn1cccc1)c1ccccc1CC2
8 | 680 nM | CCN(CC)CC(=O)N1c2ccccc2CCc2ccc(NC(=O)OC(C)C)cc21
9 | 216 nM | CC(C)(C)OC(=O)Nc1ccc2c(c1)N(C(=O)CN1CCCCC1)c1ccccc1CC2
